# In patent publication US10508104B2, “6-hydroxy-5-(phenyl/heteroarylsulfonyl)pyrimidin-4(1H)-one as APJ agonists” (Bristol-Myers Squibb Company, priority 2016, dated 2019):
# Molecular target: human APJ receptor (Homo sapiens (Human), UniProt P35414)
# Assay: Intracellular cAMP accumulation assay (APJ hcAMP, HTRF)
# Type: cell-based
# Conditions: HEK293 cells stably expressing human APJ receptor; inhibition of forskolin-mediated cAMP production; read-out: Human APJ cAMP EC50 Potency range
# How it was run: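 HEK293 cells stably expressing human APJ, 5,000 per well, incubated 30 min at rt with compound, […] and 2 μM forskolin. cAMP measured by HTRF against a cAMP standard curve as inhibition of forskolin-driven production. EC50 from variable-slope sigmoidal fit.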
# Sequence of human APJ receptor (P35414 whole entry): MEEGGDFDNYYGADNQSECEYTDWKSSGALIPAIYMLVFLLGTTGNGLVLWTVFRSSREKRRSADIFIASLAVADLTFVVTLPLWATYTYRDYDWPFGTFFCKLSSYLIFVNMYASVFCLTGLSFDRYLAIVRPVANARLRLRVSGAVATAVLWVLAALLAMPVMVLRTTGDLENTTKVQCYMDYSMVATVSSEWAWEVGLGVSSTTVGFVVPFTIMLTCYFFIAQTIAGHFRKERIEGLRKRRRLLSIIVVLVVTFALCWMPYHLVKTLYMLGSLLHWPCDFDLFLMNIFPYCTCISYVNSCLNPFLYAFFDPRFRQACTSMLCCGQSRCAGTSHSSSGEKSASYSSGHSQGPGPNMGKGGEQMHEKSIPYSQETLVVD
row,Molecule,EC50 [nM]
1,"CC[C@@H](c1cc(F)cc(C#N)c1)n1c(CC2CC2)nc(=O)c(S(=O)(=O)c2ccc(-c3ccncc3C)cc2)c1O [Example 475, 3-[(1S)-1-[2-(cyclopropylmethyl)-6-hydroxy-5-[4-(3-methylpyridin-4-yl)benzenesulfonyl]-4-oxo-1,4-dihydropyrimidin-1-yl]propyl]-5-fluorobenzonitrile]",0.01 to 10
2,"CCCCc1nc(=O)c(S(=O)(=O)c2ccc(-c3nccn3C)cc2)c(O)n1-c1c(OC)cccc1OC [Example 79, 2-Butyl-1-(2,6-dimethoxyphenyl)-6-hydroxy-5-((4-(1-methyl-1H-imidazol-2-yl)phenyl)sulfonyl)pyrimidin-4(1H)-one]",0.01 to 10
3,"C=C(c1cccc(C#N)c1)n1c(CCCC)nc(=O)c(S(=O)(=O)c2ccc(-c3ccncc3C)cc2)c1O [Example 360, 3-(1-(2-butyl-6-hydroxy-5-((4-(3-methylpyridin-4-yl)phenyl)sulfonyl)-4-oxopyrimidin-1 (4H)-yl)vinyl)benzonitrile]",0.01 to 10

# Same assay, conditions: human APJ, cAMP accumulation; read-out: Human APJ cAMP EC50 Potency range
row,Molecule,EC50 [nM]
1,"CCCCc1nc(=O)c(S(=O)(=O)c2ccc(-c3ccncc3C)cc2)c(O)n1[C@@H](CC)c1ccccc1 [Example 291, 2-butyl-6-hydroxy-5-[4-(3-methylpyridin-4-yl)benzenesulfonyl]-1-[(1S)-1-phenylpropyl]-1,4-dihydropyrimidin-4-one]",0.01 to 10
2,"CCCCc1nc(=O)c(S(=O)(=O)c2ccc(-c3cncc(C)c3)cc2)c(O)n1[C@@H](CC)c1ccccc1 [Example 293, 2-butyl-6-hydroxy-5-[4-(5-methylpyridin-3-yl)benzenesulfonyl]-1-[(1S)-1-phenylpropyl]-1,4-dihydropyrimidin-4-one]",0.01 to 10
3,"CCCCc1nc(O)c(S(=O)(=O)c2ccc(Br)cc2)c(=O)n1[C@@H](C)c1ccccc1OC [Example 238, 5-(4-bromobenzenesulfonyl)-2-butyl-6-hydroxy-3-[(1S)-1-(2-methoxyphenyl)ethyl]-3,4-dihydropyrimidin-4-one]",100 to 300
4,"CC(C)OCc1nc(=O)c(S(=O)(=O)c2ccc(Br)cc2)c(O)n1[C@H]1CCc2ccccc21 [Example 299, 5-(4-bromobenzenesulfonyl)-1-[(1S)-2,3-dihydro-1H-inden-1-yl]-6-hydroxy-2-[(propan-2-yloxy)methyl]-1,4-dihydropyrimidin-4-one]",10 to 100

# Same assay, conditions: human APJ, intracellular cAMP accumulation; read-out: Human APJ cAMP EC50 Potency range
row,Molecule,EC50 [nM]
1,"CCCCc1nc(=O)c(S(=O)(=O)c2ccc(-c3cncc(F)c3)cc2)c(O)n1-c1c(OC)cccc1OC [Example 50, 2-butyl-1-(2,6-dimethoxyphenyl)-5-[4-(5-fluoropyridin-3-yl)benzenesulfonyl]-6-hydroxy-1,4-dihydropyrimidin-4-one]",0.01 to 10
2,"CCCCc1nc(=O)c(S(=O)(=O)C2CCN(C(=O)CC(F)(F)F)CC2)c(O)n1-c1c(OC)cccc1OC [Example 114, 2-butyl-1-(2,6-dimethoxyphenyl)-6-hydroxy-5-{[1-(3,3,3-trifluoropropanoyl)piper-idin-4-yl]sulfonyl}-1,4-dihydropyrimidin-4-one]",0.01 to 10
3,"COc1cccc(OC)c1-n1c(CCC(C)C)nc(=O)c(S(=O)(=O)c2ccccc2-c2ccc(F)nc2)c1O [Example 24, 1-(2,6-dimethoxyphenyl)-5-[2-(6-fluoropyridin-3-yl)benzenesulfonyl]-6-hydroxy-2-(3-methylbutyl)-1,4-dihydropyrimidin-4-one]",10 to 100
4,"CCCc1nc(=O)c(S(=O)(=O)c2ccc(-c3cncc(F)c3)cc2)c(O)n1[C@@H](COC)c1ccccc1 [Example 172, 5-[4-(5-fluoropyridin-3-yl)benzenesulfonyl]-6-hydroxy-1-[(1R)-2-methoxy-1-phenylethyl]-2-propyl-1,4-dihydropyrimidin-4-one]",0.01 to 10
5,"5-(4- bromobenzenesulfonyl)- 2-butyl-3-[(1S)-1-(3- chlorophenyl)propyl]-6- hydroxy-3,4- dihydropyrimidin-4-one [Example 188]",10 to 100
